Data from patent US20180184644A1, “CELL STABILIZATION” (Biomatrica, Inc., priority 2013, published 2018).
Entries after “also recorded” stand apart in the source; their conditions may differ.

Key:
[1] = tested on: human neonatal fibroblasts; experiment: Cell viability by ATP content of substantially dry stored human neonatal fibroblasts; format: cell-based; design: % CELL VIABILITY 24 hr / % CELL VIABILITY 48 hr / % CELL VIABILITY 120 hr: concentration or dose not given beside the values; settings: for % CELL VIABILITY 24 hr / % CELL VIABILITY 48 hr / % CELL VIABILITY 120 hr: inhibitor in predehydration and rehydration formulation; for % CELL VIABILITY 24 hr: MCS dehydration formulation 41, dry stored 24 hr at ambient temperature; for % CELL VIABILITY 48 hr: MCS dehydration formulation 41, dry stored 48 hr at ambient temperature; for % CELL VIABILITY 120 hr: MCS dehydration formulation 41, dry stored 120 hr at ambient temperature
Text: ATP content may be determined using a Cell Titer-Glo Luminescent Cell viability Assay (Promega) in accordance with the manufacturer's instructions. The addition of the Cell Titer-Glo Luminescent reagent into the cells generates a luminescent signal proportional to the amount of intracellular ATP. The amount of ATP is directly proportional to the number of cells present in culture, and it is then a homogeneous method of determining the number of viable (metabolically active) cells in the rehydrated cell preparation.
Briefly, human neonatal fibroblasts were suspended in Cascade Media 106 and seeded as 100 ul cultures at a densities of 100-5000 cells per test in 96 well plates and incubated in an environment of ambient atmosphere while maintaining an elevated CO2 level (5%-10%) and temperature of 37 C with relative humidity of 85-95%. The culture is adjusted to specific composition of predehydration formulations and media specified concentration of each apoptosis inhibitor. The cells were incubated for a period of at least one hour but not more than 3 hours hr at 37° C. The predehydration formulation was thoroughly removed and 10-15 ul of MCS dehydration formulation 41 (Table 1) was added to each well. The cells were substantially air dried at 37 C, 5% CO2, 20% relative humidity over a period of 90 minutes, stored at ambient temperature for a period of 24, 48 or 120 hours. At the appropriate time, the substantially dry stored cells were rehydrated by treating with a rehydration formulation comprising the same concentration of apoptosis inhibitor in 100-200 μl of predehydration formulation. Cell viability was determined by measuring ATP content as described herein.

HeLa cells = experiment: Cell viability by Trypan Blue method of substantially dry stored HeLa cells; format: cell-based
Experimental: Cell viability may be measured using a Trypan Blue staining procedure. […] Cell counting was performed in 9 mm KOVA glass slides 10 with Grid Chambers (Hycor) in triplicate under a Leitz Fluovert microscope. The percentage of cell survival is reported relative to untreated control cells. Briefly, HeLa cells were substantially dry stored using predetermined predehydration formulations (SC1, salubrinal and SC3, MLS-0315763) and a subset of the dehydration formulations set forth in Table 1 for a period of seven hours and then rehydrated using the rehydration formulations listed below (RC1, salubrinal and RC3, MLS-0315763). Cell viability was assessed seven days after rehydration using the Trypan Blue method. The results are shown in Table 3 and FIG. 3A and FIG. 3B.

Mammalian cells = settings: trehalose-loaded dried cells stored for even few minutes; cited from earlier work

Structure (SMILES)	% CELL VIABILITY 24 hr [1]	% CELL VIABILITY 48 hr [1]	% CELL VIABILITY 120 hr [1]	viable cells (in words) ([1]; by 24 hr of dry storage)	surviving / viable cells (in words) (HeLa cells; HeLa cells, 7 hours dry storage, 7 days after rehydration)	% HeLa Cell Viability (HeLa cells; dry stored seven hours, Trypan Blue seven days after rehydration)	cell survival after dry storage (in words) (Mammalian cells)
C[S+]([O-])CCCCN=C=S [L-sulphurophane]	98.8%	65.3%	50.9%	–	–	–	–
O=c1cc(N2CCOCC2)oc2c(-c3ccccc3)cccc12 [LY294002, 2-(4-morpholinyl)-8-phenyl-4H-1-benzopyran-4-one]	83.8%	85.9%	98.7%	–	–	–	–
O=C(NOC[C@H](O)CO)c1ccc(F)c(F)c1Nc1ccc(I)cc1F [PD032591, N-[(2R)-2,3-dihydroxypropoxy]-3,4-difluoro-2-[(2-fluoro-4-iodophenyl)amino]-benzamide]	100.0%	85.1%	95.7%	–	–	–	–
CO[C@H]1C[C@@H]2CC[C@@H](C)[C@@](O)(O2)C(=O)C(=O)N2CCCC[C@H]2C(=O)O[C@H]([C@H](C)C[C@@H]2CC[C@@H](O)[C@H](OC)C2)CC(=O)[C@H](C)/C=C(\C)[C@@H](O)[C@@H](OC)C(=O)[C@H](C)C[C@H](C)/C=C/C=C/C=C/1C [Rapamycin]	88.4%	73.2%	90.0%	–	–	–	–
O=C(/C=C/c1ccccc1)NC(NC(=S)Nc1cccc2cccnc12)C(Cl)(Cl)Cl (stereo not shown) [Salubrinal]	100.0%	72.9%	109.5%	–	–	–	–
OC[C@H]1O[C@H](O[C@H]2O[C@H](CO)[C@@H](O)[C@H](O)[C@H]2O)[C@H](O)[C@@H](O)[C@@H]1O [Trehalose]	7.5%	0.0%	0.0%	little to no viable cells	did not yield in any viable cells; also recorded: did not yield any surviving cells	0%	complete cell death
